Consider one molecule from patent US20220127337A1 (priority 2020, published 2022).

Assay [1] has as its system CoV-2 ORF3a-mediated activation of caspase 1. Type of assay: cell-based, human.
The next assay has as its system SARS-CoV. The note with it: Lu W et al. Proc Natl Acad Sci USA 103, 12540-12545 (2006); cited from earlier work.

`[Ba+2]` [barium]: the “CoV-2 ORF3a-mediated activation of caspase 1” value in assay [1] was “able to curb CoV-2 ORF3a-mediated activation of caspase 1”. In the assay with SARS-CoV, the “release of SARS-CoV virions” value is “block the release of SARS-CoV virions”.
